Measured values reported in publication PMC10353061 (ACS Pharmacology & Translational Science, 2023).

Tests used:
[1] = molecular target: T1, β-catenin Armadillo repeats domain (Homo sapiens, UniProt P35222); test: Surface plasmon resonance binding of 9 to immobilized β-catenin Armadillo repeats domain; conditions: SPR, 25 °C, analyte 1.95-62.5 nM, 1:1 model; read-out: ka
T1 construct: GST (N, cleaved yes); made in house; host or cells: Escherichia coli BL21(DE3)
T1 sequence (P35222 133-664): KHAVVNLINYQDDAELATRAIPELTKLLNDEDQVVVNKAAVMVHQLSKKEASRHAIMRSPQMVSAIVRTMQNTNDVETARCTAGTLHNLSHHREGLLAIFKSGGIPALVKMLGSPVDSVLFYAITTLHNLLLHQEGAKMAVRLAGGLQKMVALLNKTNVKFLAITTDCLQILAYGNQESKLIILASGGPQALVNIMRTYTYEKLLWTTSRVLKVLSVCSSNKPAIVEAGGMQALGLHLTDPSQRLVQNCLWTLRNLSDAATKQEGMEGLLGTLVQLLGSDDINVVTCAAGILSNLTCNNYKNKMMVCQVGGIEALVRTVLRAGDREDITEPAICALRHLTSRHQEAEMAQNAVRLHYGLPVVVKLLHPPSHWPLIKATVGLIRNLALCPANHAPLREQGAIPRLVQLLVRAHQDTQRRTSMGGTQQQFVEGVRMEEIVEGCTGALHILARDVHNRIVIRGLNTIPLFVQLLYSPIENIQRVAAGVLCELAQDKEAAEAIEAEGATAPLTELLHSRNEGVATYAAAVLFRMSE
Protocol: To collect detailed kinetic data of the binding measured as the rate constants of the association (ka) and dissociation (kd) of the complex, a concentration series of the analyte ranging from 1.95 up to 62.5 nM was injected over the covalently immobilized Armadillo repeats domain onto the sensor chip surface and the interaction between the analyte and the ligand was detected as a measure of the change in mass concentration upon the surface, expressed in resonance units (RUs) and compared to the baseline.
Full kinetic analysis of the binding interaction between 9 when binding to the Armadillo domain is shown in Figure 4, with the calculated binding parameters listed in the bottom table. As evidenced by the sensorgram obtained at different analyte concentrations, the dissociation rate constant of 9 is very slow, thereby resulting in a low nanomolar equilibrium affinity constant (KD) of the binding calculated as the ratio of kd/ka (Figure 4).
Figure 4 SPR kinetic analysis. […]
The analyte 9 was dialyzed in the running buffer (1% final DMSO concentration) and injected at different concentrations for 120 s onto the sensor chip at a constant flow rate of 50 μL/min. […] The equilibrium dissociation constant (KD) was determined by the ratio Koff/Kon. […]

[2] = tested on: β-catenin; test: Wnt reporter assay (TOP/FOP luciferase) in LiCl-treated HCT116 cells; assay type: cell-based; conditions: Homo sapiens, HCT-116, read-out: IC50, inhibition of β-catenin (luciferase reporter), LiCl 50 mM, 24 h
Protocol: Compounds 9 and 10 were assayed at increasing 10 and 100 nM and 1 μM concentrations in HCT116 cells transfected with luciferase-based vectors and treated with LiCl (50 mM). TOP TK is a well-established Wnt reporter vector containing eight sequences of Tcf/Lef binding site upstream of the timidine kinase (TK) minimal promoter, driving the expression of firefly luciferase.
Figure 6 HCT116 cells were transfected with luciferase-based vectors and treated with LiCl (50 mM) together with increasing concentrations of compound 9 or 10. Cells were harvested 24 h post-treatment and assayed for luciferase activity. Inhibitions were calculated as the luciferase/renilla ratio of the treated samples vs. the luciferase/renilla ratio of the untreated (control) samples. Data are represented as the mean ± SD of three independent experiments, each performed in triplicate. **p < 0.01, ***p < 0.001, n.s = not significant, as determined by analysis of variance (ANOVA).
Luciferase assays were performed as previously described.[58],[59] Briefly, HCT116 cells were transfected with Topflash reporter (M50 Super 8x TOPFlash, containing 8 repeats of TCF/LEF binding sites) or Fopflash reporter (M51 Super 8x FOPFlash, containing the mutated TCF/LEF binding sites) plasmids using the Dreamfect Gold Transfection Reagent (#DG80500, OZ Biosciences). […]

Structure (SMILES): O=S(=O)(Nc1ccc(-c2ccccn2)cc1)c1ccc(Br)cc1 [Compound 9, 4-Bromo-N-(4-(pyridin-2-yl)phenyl)benzenesulfonamide]
- kon [1]: 293000 M⁻¹ s⁻¹
- IC50 [2]: > 1 µM
